Test systems include HT29 colon; DU-145 prostate; SK-MEL-5 melanoma; SK-OV-3 ovarian; OVCAR-5 ovarian; PC-3 prostate; NCI-H522 lung; UO-31 renal; MOLT-4 leukemia; ACHN renal.
Common to all, as to assay: NCI tumour cell line growth inhibition, 48 h

Several values for one entry are separate records, joined by “and”; a condition that tells them apart may be missing. Equal values may be shown once.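 48-hour exposure; five concentrations; linearly interpolated endpoints. Abbreviation: GI50, concentration required for 50% inhibition of growth. TGI: total growth inhibition.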 Bounds are passed on as bounds.

With `COc1ccc(-n2c(C)nc3c(c(C)nn3-c3ccccc3)c2=O)cc1`, the GI50 with HT29 colon is 46.7 nM; in the test on DU-145 prostate it was 290 nM; in the test on SK-MEL-5 melanoma, 61.5 nM; in the test on SK-OV-3 ovarian it was 1080 nM; with OVCAR-5 ovarian it was 0.298 µM; with PC-3 prostate it was 60.3 nM. The GI50 in the test with NCI-H522 lung was 37.5 nM; in the test on UO-31 renal it was 261 nM; with MOLT-4 leukemia it was 196 nM; in the test with ACHN renal, 64.5 nM. Moreover, the TGI with HT29 colon is over 31.9 µM; with DU-145 prostate, over 100 µM; with SK-MEL-5 melanoma, 4.6 µM; in the test on SK-OV-3 ovarian it was over 100 µM; in the test with OVCAR-5 ovarian it was over 100 µM; with PC-3 prostate, over 100 µM. Moreover, the TGI in the test on NCI-H522 lung is 9.1 µM; with UO-31 renal it was over 43.4 µM; in the test on MOLT-4 leukemia, over 40.4 µM; with ACHN renal, over 100 µM.

In the case of `C[C@@H]1COC(Nc2ccc3ncnc(Nc4ccc(OCc5nccs5)c(Cl)c4)c3c2)=N1`, the GI50 in the test on HT29 colon is 5040 nM and 4330 nM; with DU-145 prostate, 3190 nM and 3260 nM; in the test on SK-MEL-5 melanoma, 2210 nM and 2980 nM; with SK-OV-3 ovarian, 167 nM and 178 nM; with OVCAR-5 ovarian, > 10 µM and 11.9 µM; in the test with PC-3 prostate, 3370 nM and 2980 nM. For the same compound, the GI50 in the test with NCI-H522 lung is 237 nM and 490 nM; with UO-31 renal, 821 nM and 1290 nM; in the test on MOLT-4 leukemia, 3380 nM and 2870 nM; in the test on ACHN renal it was 446 nM and 432 nM. Besides, the TGI in the test with HT29 colon is > 10 µM and 17.8 µM; in the test on DU-145 prostate, > 10 µM and 19.3 µM; in the test with SK-MEL-5 melanoma it was 6.42 µM and 10.6 µM; in the test on SK-OV-3 ovarian, > 10 µM and 14.4 µM; in the test on OVCAR-5 ovarian it was > 10 µM and 33.3 µM; with PC-3 prostate, > 10 µM and 13.2 µM. Also, the TGI in the test with NCI-H522 lung is > 10 µM and 4.65 µM; with UO-31 renal, > 10 µM and 13.5 µM; in the test on MOLT-4 leukemia it was > 10 µM and 8.72 µM; with ACHN renal, > 10 µM and 16.6 µM.

For the compound `COc1ccc2c(c1)C(=O)c1c-2n(CCCN2CCOCC2)c(=O)c2cc([N+](=O)[O-])ccc12`, the GI50 with HT29 colon is under 10 nM; with DU-145 prostate, under 10 nM; in the test with SK-MEL-5 melanoma it was under 10 nM; with SK-OV-3 ovarian it was under 10 nM; in the test with OVCAR-5 ovarian, under 0.01 µM; with PC-3 prostate it was under 10 nM. For the same compound, the GI50 with NCI-H522 lung, in the test on UO-31 renal, in the test with MOLT-4 leukemia and in the test on ACHN renal was under 10 nM each time. The TGI with HT29 colon was over 100 µM; with DU-145 prostate, 0.0106 µM; with SK-MEL-5 melanoma it was under 0.01 µM; in the test on SK-OV-3 ovarian, 14.5 µM; in the test on OVCAR-5 ovarian it was 0.889 µM; in the test with PC-3 prostate it was over 31.9 µM. The TGI is 0.0572 µM with UO-31 renal and under 0.0108 µM with ACHN renal.

With `Cc1cc(NC(=O)NC(=O)c2ccccc2NC(=O)CN)ccc1Oc1ncc(Br)cn1`, the GI50 is 65.3 nM with HT29 colon; 342 nM with DU-145 prostate; 200 nM and 44.5 nM with SK-MEL-5 melanoma; 0.541 µM in the test on OVCAR-5 ovarian; 81.6 nM with PC-3 prostate; 269 nM and 96 nM with NCI-H522 lung. For the same compound, the GI50 in the test with UO-31 renal was 2100 nM; with MOLT-4 leukemia, 80.7 nM; in the test on ACHN renal it was 5250 nM. For the same compound, the TGI is 20.1 µM and 15.9 µM with DU-145 prostate; 43.9 µM and 26.8 µM with SK-MEL-5 melanoma; 35.8 µM and 13.9 µM in the test on SK-OV-3 ovarian; 43.6 µM and 75.2 µM in the test on OVCAR-5 ovarian; 18.8 µM and > 100 µM in the test with PC-3 prostate; 2.24 µM and 0.472 µM with NCI-H522 lung. The TGI in the test with UO-31 renal is 50.1 µM and > 100 µM; with MOLT-4 leukemia it was 75 µM and > 100 µM; with ACHN renal, 40.7 µM and 80.3 µM.

As to `Oc1cc(Cl)ccc1Cc1ccc(Cl)cc1O`, the GI50 is 17500 nM in the test on HT29 colon; 10400 nM in the test on DU-145 prostate; 4480 nM in the test with SK-MEL-5 melanoma; 20600 nM in the test with SK-OV-3 ovarian; 15.1 µM with OVCAR-5 ovarian; 6230 nM with PC-3 prostate. The GI50 is 3860 nM with NCI-H522 lung, 4890 nM with UO-31 renal, 9240 nM with MOLT-4 leukemia and 10000 nM with ACHN renal. Further, the TGI with HT29 colon is 31.3 µM; in the test on DU-145 prostate, 23.2 µM; with SK-MEL-5 melanoma, 15.8 µM; in the test with SK-OV-3 ovarian, 43.3 µM; in the test on OVCAR-5 ovarian it was 31.8 µM; in the test with PC-3 prostate it was 83 µM. For the same compound, the TGI was 15 µM in the test with NCI-H522 lung, 20.1 µM with UO-31 renal, over 100 µM with MOLT-4 leukemia and 31.2 µM in the test with ACHN renal.

Regarding `O=[N+]([O-])/C=C/c1ccc([N+](=O)[O-])cc1`, the GI50 is 2070 nM in the test with HT29 colon; 1960 nM with DU-145 prostate; 1760 nM with SK-MEL-5 melanoma; 4150 nM in the test with SK-OV-3 ovarian; 4.47 µM with OVCAR-5 ovarian; 5460 nM in the test with PC-3 prostate. Moreover, the GI50 is 3830 nM in the test with NCI-H522 lung, 1830 nM with UO-31 renal, 5810 nM in the test with MOLT-4 leukemia and 2080 nM with ACHN renal. The TGI is 5 µM in the test with HT29 colon; 3.77 µM with DU-145 prostate; 4.51 µM in the test with SK-MEL-5 melanoma; 14.4 µM in the test on SK-OV-3 ovarian; 15.5 µM in the test with OVCAR-5 ovarian; 24.8 µM with PC-3 prostate. Besides, the TGI with NCI-H522 lung is 15 µM; in the test on UO-31 renal, 3.69 µM; in the test with MOLT-4 leukemia, 62.5 µM; with ACHN renal, 4.16 µM.

As for `COc1ccc(-c2ccccc2)cc1-c1c(Nc2cc(Cl)cc(Cl)c2O)c(=O)c1=O`, the GI50 in the test with HT29 colon was 1920 nM; with DU-145 prostate, 1700 nM; in the test on SK-MEL-5 melanoma it was 970 nM; in the test on SK-OV-3 ovarian, 1280 nM; in the test on OVCAR-5 ovarian, 1.77 µM; in the test with PC-3 prostate, 1370 nM. The GI50 in the test on NCI-H522 lung is 1410 nM; in the test on UO-31 renal, 1250 nM; in the test on MOLT-4 leukemia, 1780 nM; in the test with ACHN renal, 1500 nM. The TGI in the test on HT29 colon was over 50 µM; in the test on DU-145 prostate, over 50 µM; in the test with SK-MEL-5 melanoma, 2.25 µM; in the test with SK-OV-3 ovarian, 4.25 µM; with OVCAR-5 ovarian it was over 50 µM; with PC-3 prostate, over 50 µM. Further, the TGI in the test on NCI-H522 lung, in the test with UO-31 renal, with MOLT-4 leukemia and in the test on ACHN renal was over 50 µM each time.

Take `Cc1ccc(/C(=C/C=C(C#N)C#N)Sc2ccccn2)cc1`: the GI50 with HT29 colon was 2890 nM; in the test on DU-145 prostate it was 2280 nM; with SK-MEL-5 melanoma, 2510 nM; in the test on SK-OV-3 ovarian, 19600 nM; in the test on OVCAR-5 ovarian, 4.13 µM; in the test with PC-3 prostate, 4650 nM. Further, the GI50 is 6490 nM in the test on NCI-H522 lung, 3210 nM with UO-31 renal, 2010 nM in the test on MOLT-4 leukemia and 1830 nM with ACHN renal. Also, the TGI was 8.41 µM with HT29 colon; 6.06 µM in the test with DU-145 prostate; 7.55 µM in the test with SK-MEL-5 melanoma; 65.8 µM in the test with SK-OV-3 ovarian; 13.9 µM in the test with OVCAR-5 ovarian; over 20.5 µM in the test with PC-3 prostate. Also, the values for the TGI in the test with NCI-H522 lung, with MOLT-4 leukemia and in the test on ACHN renal were 19.6 µM, 6.32 µM and 3.52 µM, respectively.

The values are drawn from PubChem BioAssay (NCI).
